Measurements taken from PubChem BioAssay (NCI).
Values joined by “and” are separate entries in the source; they are usually repeats but may differ in a detail not shown here. Equal entries are not always repeated.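 A five-concentration, 48-hour dose response in 96-well plates underlies each endpoint, interpolated linearly between surrounding concentrations. GI50: concentration for 50% inhibition of growth. At the TGI there is no net growth.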

Tests used:
Assay in all cases: NCI anticancer screen, dose series, 48 h
MDA-N = test system: MDA-N
XF 498 CNS = test system: XF 498 CNS
SNB-78 CNS = test system: SNB-78 CNS
HOP-18 NSCLC = test system: HOP-18 NSCLC
M19-MEL melanoma = test system: M19-MEL melanoma
KM20L2 colon = test system: KM20L2 colon
DLD-1 colon = test system: DLD-1 colon
DMS 114 small cell lung = test system: DMS 114 small cell lung
RXF-631 renal = test system: RXF-631 renal

Row | Compound | TGI (MDA-N) | TGI (XF 498 CNS) | TGI (SNB-78 CNS) | TGI (HOP-18 NSCLC) | TGI (M19-MEL melanoma) | TGI (KM20L2 colon) | TGI (DLD-1 colon) | TGI (DMS 114 small cell lung) | other results
1 | Fc1ccc(NC(=S)SCc2ccc3c(c2)OCO3)cc1F | 34.7 µM |  |  |  |  |  |  |  | 
2 | CNC(=S)OCCC(C)CCCC(C)C (stereo unspecified) |  | 31.1 µM | 34.5 µM | 31.3 µM | 34.9 µM | 30 µM | 28.9 µM |  | 
3 | CCOC(=O)CCC1(C(=O)OCC)CCCCC1=O (stereo unspecified) |  | > 100 µM | > 100 µM | > 100 µM | > 100 µM | > 100 µM | > 100 µM | > 100 µM | 
4 | Cc1ccsc1C(=S)Nc1ccc(Cl)c(/C=N/OC(C)(C)C)c1 | > 100 µM |  |  |  |  |  |  |  | 
5 | O=C(CCc1nc(=S)[nH][nH]1)Nc1cc(Cl)c(Cl)cc1Cl |  | > 100 µM | > 100 µM |  | > 100 µM | > 100 µM |  | > 100 µM | TGI (RXF-631 renal): > 100 µM
6 | CN(C)N=Nc1ccc(C(N)=O)cc1 |  | > 100 µM | > 100 µM | > 100 µM | > 100 µM | > 100 µM | > 100 µM | > 100 µM | 
7 | Nc1ccccc1S(=O)(=O)N(CC(=O)O)c1ccccc1 |  | > 100 µM |  | > 100 µM | > 100 µM | > 100 µM | > 100 µM |  | TGI (RXF-631 renal): > 100 µM
8 | C=CCOc1ccc2c(C)cc(=O)oc2c1C | > 100 µM |  |  |  |  |  |  |  | 
9 | NC(=O)NO.O.O.O.O.O.O.O.O.O.O.O.[Ge].[Ge].[Ge].[Ge].[Ge].[O]=[Ge].[O]=[Ge].[O]=[Ge].[O]=[Ge].[O]=[Ge][OH] |  | > 100 µM | > 100 µM | > 100 µM | > 100 µM | > 100 µM | > 100 µM |  | 
10 | Cc1cnc(NCCCN(C)C)c2c1[nH]c1ccc3cc(O)ccc3c12 | 2.21 µM | 0.806 µM | 3.86 µM | 5.97 µM | 1.25 µM | 2.29 µM | 3.7 µM | 0.993 µM | 
11 | COC(=O)C1(C(C)C)CCc2c(OC)ccc(OC)c2C1=O (stereo unspecified) |  | > 100 µM | > 100 µM | > 100 µM | > 100 µM | > 100 µM | > 100 µM | > 100 µM | 
12 | CCC[CH2][Sn]([CH2]CCC)([S]c1cccc2cccnc12)[S]c1cccc2cccnc12 |  | 0.26 µM | 0.825 µM | 0.605 µM | 0.587 µM | 0.474 µM | 0.382 µM | 0.319 µM | GI50 (XF 498 CNS): 0.101 µM; GI50 (SNB-78 CNS): 0.203 µM; GI50 (HOP-18 NSCLC): 0.264 µM; GI50 (M19-MEL melanoma): 0.216 µM; GI50 (KM20L2 colon): 0.215 µM; GI50 (DLD-1 colon): 0.172 µM; GI50 (DMS 114 small cell lung): 0.129 µM
13 | CC1(C(=O)O)CCC[C@@]2(C)C1CC[C@@]1(C)c3cocc3CCC21 (stereo partly specified) |  | > 100 µM | > 100 µM | > 100 µM | > 100 µM | > 100 µM | > 100 µM | > 100 µM | TGI (RXF-631 renal): > 100 µM
14 | O=[N+]([O-])c1cccc(-c2csc(NNC3=NC/C(=C/c4ccc5c(c4)OCO5)S3)n2)c1 | > 100 µM |  |  |  |  |  |  |  | 
15 | CCCCCCCCCCCCCC(=O)OC(/C=C/C(C)C)C(O)C(O)C(OC)C(=O)NC1CCCCN(C)C1=O (stereo unspecified) |  |  | 14.8 µM | 9.84 µM and > 49 µM | 7.5 µM and > 49 µM | 7.64 µM and > 49 µM | 6.56 µM and > 49 µM | 5.44 µM and > 49 µM | GI50 (HOP-18 NSCLC): 6.44 µM; GI50 (M19-MEL melanoma): > 49 µM; GI50 (KM20L2 colon): > 49 µM; GI50 (DLD-1 colon): > 49 µM; GI50 (DMS 114 small cell lung): > 49 µM; GI50 (RXF-631 renal): > 49 µM; TGI (RXF-631 renal): 7.52 µM and > 49 µM
16 | C1=C2/CC[C@H](Sc3ccccc3)C2C2(CCCCC/1)OCCO2 (stereo partly specified) |  | 58.6 µM | > 100 µM | > 100 µM | 33.5 µM | 37.1 µM | > 100 µM |  | 
17 | NC(N)=NS(=O)(=O)c1ccc(Nc2c3ccccc3nc3c(C(=O)NCCO)cccc23)cc1 |  |  |  |  |  |  |  |  | GI50 (MDA-N): 17.8 µM
18 | CO/C(=N\N=C\c1ccc(C(F)(F)F)cc1)c1ccncc1 | > 10 µM |  |  |  |  |  |  |  | 
19 | O=C(CCNC12CC3CC(CC(C3)C1)C2)c1ccccc1 | 30.5 µM |  |  |  |  |  |  |  | 
20 | O=C(CCc1nc(=S)[nH][nH]1)Nc1ccc(Cl)c(Cl)c1 |  | > 100 µM | > 100 µM | > 100 µM | > 100 µM | 31.6 µM | > 100 µM | > 100 µM | TGI (RXF-631 renal): > 100 µM
21 | COc1cc2cc(OC)c3cc4c(cc3c2c(OC)c1OC)OCO4 |  |  | > 100 µM | > 100 µM | 48.8 µM | 53.5 µM | 51.5 µM | > 100 µM | TGI (RXF-631 renal): > 100 µM
